The target of assay [1] is T1, human B1R receptor (CHO K1 cells stably transfected with the human B1R gene) (Homo sapiens, UniProt P46663).
T1 construct: expressed in transfected cells; host or cells: CHO K1 cells (Chinese hamster ovary), stably transfected
T1 sequence (P46663 1-353): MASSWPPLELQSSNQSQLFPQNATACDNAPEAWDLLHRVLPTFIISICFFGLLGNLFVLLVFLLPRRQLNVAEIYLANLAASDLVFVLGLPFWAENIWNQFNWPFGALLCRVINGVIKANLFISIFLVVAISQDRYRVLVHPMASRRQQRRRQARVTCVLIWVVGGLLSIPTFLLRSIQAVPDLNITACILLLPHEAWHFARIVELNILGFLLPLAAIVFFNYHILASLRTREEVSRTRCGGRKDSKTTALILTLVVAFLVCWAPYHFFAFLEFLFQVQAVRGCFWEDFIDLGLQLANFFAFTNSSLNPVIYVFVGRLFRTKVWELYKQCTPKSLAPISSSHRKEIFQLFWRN
Kind of assay: Functional study on the bradykinin receptor 1 (B1R), Ca2+ fluorescence (Fluo-4) FLIPR/Novostar assay, hB1R cells. The assay is classed as cell-based. An outline of the steps: (§1)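 Ca2+ influx (Fluo-4, peak fluorescence, λex 488/λem 540 nm) was measured in CHO K1 lines expressing rat or human B1R. After a 10 μM test-compound pre-addition scoring % activation, cells received EC80 agonist: Des-Arg9-bradykinin for rat, Lys-Des-Arg9-bradykinin for human. Antagonism was expressed as % of maximum inhibition, with IC50 from varied concentrations.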

Assay [2] addresses T2, B1R receptor of the rat (CHO K1 cells stably transfected with the B1R gene of the rat) (Rattus norvegicus, UniProt P97583).
T2 construct: expressed in transfected cells; host or cells: CHO K1 cells (Chinese hamster ovary), stably transfected
T2 sequence (P97583 1-337): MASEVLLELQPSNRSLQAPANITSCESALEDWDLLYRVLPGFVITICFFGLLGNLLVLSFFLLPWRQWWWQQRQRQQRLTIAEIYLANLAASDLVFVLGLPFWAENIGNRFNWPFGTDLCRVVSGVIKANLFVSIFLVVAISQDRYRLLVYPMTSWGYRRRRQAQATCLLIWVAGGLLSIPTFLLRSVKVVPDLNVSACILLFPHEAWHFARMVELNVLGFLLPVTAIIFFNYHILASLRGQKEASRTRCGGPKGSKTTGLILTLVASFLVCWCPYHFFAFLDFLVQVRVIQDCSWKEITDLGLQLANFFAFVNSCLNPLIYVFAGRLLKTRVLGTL
Kind of assay: Functional study on the bradykinin receptor 1 (B1R), Ca2+ fluorescence (Fluo-4) FLIPR/Novostar assay, rB1R cells. Type of assay: cell-based. The note with it: CHO-K1, 10 μM. A digest of the protocol:
as §1

The mark [3] stands for this setting: CHO-K1, read-out: % inhibition (human B1R) at 10 μM.
The mark [4] stands for this setting: read-out: % inhibition (rat B1R) at 10 μM.

From patent US8680159B2, “Bradykinin 1 receptor modulating compounds” (Gruenenthal GmbH, priority 2010, dated 2014) come the findings set out here.

Where two headings read alike, the source gives them in different places.

For orientation: inhibition means the change of the read-out against control, counted positive when it falls.

For the molecule `Cc1cncc(N2CCC(N(C)C(=O)c3ccc4c(c3)[C@H](NC(=O)c3ccccc3Cl)CC4)CC2)n1` [Example H-181, (3R)-3-[(2-Chloro-benzoyl)amino]-N-methyl-N-[1-(6-methyl-pyrazin-2-yl)-piperidin-4-yl]-2,3-dihydro-1H-indene-5-carboxylic acid amide], the results for the inhibition at 10 µM in assay [1] (setting [3]) and in assay [2] (setting [4]) were 77% and 100%, respectively.
With `CC(C)CC(=O)NC1CC(C)(C)c2ccc(C(=O)N(C)C3CCN(c4ccncc4)CC3)cc21` (centres unmarked) [CC_H-43, N,1,1-Trimethyl-3-(3-methyl-butanoylamino)-N-(1-pyridin-4-yl-piperidin-4-yl)-2,3-dihydro-indene-5-carboxylic acid amide], the inhibition at 10 µM in assay [1] (CHO-K1, read-out: % Inhibition (h-B1R) at 10 μM) turned out to be 100%; in assay [2] (read-out: % Inhibition (r-B1R) at 10 μM), 105%.
With `CN(C(=O)c1ccc2c(c1)[C@@H](NC(=O)c1ccccc1Cl)CC2)C1CCN(c2ccncc2)CC1` [Example H-21, (3S)-3-[(2-Chloro-benzoyl)amino]-N-methyl-N-(1-pyridin-4-yl-piperidin-4-yl)-2,3-dihydro-1H-indene-5-carboxylic acid amide], the inhibition at 10 µM in assay [1] (setting [3]) is 99%; in assay [2] (setting [4]) it was 105%.
For the molecule `CN(C)c1cc(N2CCC(N(C)C(=O)c3ccc4c(c3)[C@H](N(C)C(=O)CCC3CCCC3)CC4)CC2)ccn1` [Example H-185, (3R)-3-(3-Cyclopentyl-propanoyl-methyl-amino)-N-[1-(2-dimethylamino-pyridin-4-yl)-piperidin-4-yl]-N-methyl-2,3-dihydro-1H-indene-5-carboxylic acid amide], the figures for the inhibition at 10 µM in assay [1] (setting [3]) and in assay [2] (setting [4]) were 100% and 105%, respectively.
For `CN(C(=O)c1ccc2c(c1)[C@H](NC(=O)c1ccccc1C(C)(C)C)CC2)C1CCN(c2ccncc2)CC1` [Example H-67, (3R)-3-[(2-tert-Butyl-benzoyl)amino]-N-methyl-N-(1-pyridin-4-yl-piperidin-4-yl)-2,3-dihydro-1H-indene-5-carboxylic acid amide], in that order: 100% and 102%.
For `CN(C(=O)c1ccc2c(c1)[C@H](NC(=O)c1ccccc1Cl)CC2)C1CCN(C(=O)CCN2CCCCC2)CC1` [Example H-90, (3R)-3-[(2-Chloro-benzoyl)amino]-N-methyl-N-[1-(3-piperidin-1-yl-propanoyl)-piperidin-4-yl]-2,3-dihydro-1H-indene-5-carboxylic acid amide], in that order: 62% and 105%.
`CN(C(=O)c1ccc2c(c1)[C@H](NC(=O)c1ccccc1Cl)CC2)C1CCN(c2ccncc2)CC1` [Example H-06, (3R)-3-[(2-Chloro-benzoyl)amino]-N-methyl-N-(1-pyridin-4-yl-piperidin-4-yl)-2,3-dihydro-1H-indene-5-carboxylic acid amide]: the inhibition at 10 µM in assay [1] (setting [3]) was 100%; in assay [2] (setting [4]) it was 102%.
Taken in the same sequence, the figures for `Cc1cc(C(=O)N[C@@H]2CCc3ccc(C(=O)N(C)C4CCN(c5ccncc5)CC4)cc32)no1` [Example H-62, 5-Methyl-N-[(1R)-6-[methyl-(1-pyridin-4-yl-piperidin-4-yl)-carbamoyl]-2,3-clihydro-1H-inden-1-yl]-isoxazole-3-carboxylic acid amide] were 100% and 99%.
Consider `CN(C(=O)c1ccc2c(c1)[C@H](NC(=O)C1CCc3ccccc31)CC2)C1CCN(c2ccncc2)CC1` (stereo partly drawn) [Example H-82, (3R)-3-(2,3-Dihydro-1H-inden-1-carbonylamino)-N-methyl-N-(1-pyridin-4-yl-piperidin-4-yl)-2,3-dihydro-1H-indene-5-carboxylic acid amide], for which the values for the inhibition at 10 µM in assay [1] (setting [3]) and in assay [2] (setting [4]) were 100% and 112%, respectively.
Taken in the same sequence, the figures for `CN(C(=O)c1ccc2c(c1)[C@H](NC(=O)c1cccnc1C(F)(F)F)CC2)C1CCN(c2ccncc2)CC1` [Example H-37, N-[(1R)-6-[Methyl-(1-pyridin-4-yl-piperidin-4-yl)-carbamoyl]-2,3-dihydro-1H-inden-1-yl]-2-(trifluoromethyl)-pyridine-3-carboxylic acid amide] were 100% and 107%.
